One test deals with M. tb H37Ra bacilli. Put plainly: microbe, parasite or virus in culture. In kind it is cell-based, Mycobacterium tuberculosis H37Ra.
In test [1] the test system is mycobacterial serine protease (Seva TB ES-31). In kind it is biochemical, Mycobacterium tuberculosis H37Ra.
Setting [2] is: Mycobacterium tuberculosis, H37RA, read-out: % Inhibition on culture.

The results in this text go back to US20090011442A1, “TB diagnostics based on mycobacterium tuberculosis excretory secretory antigens and their specific immunoglobulins” (priority 2007, published 2009).

SMILES strings stand for the structures. Like-named read-outs stand apart in the source and are kept apart here.

By inhibition is commonly meant the relative decrease from the control value, in per cent. For the molecule `c1cnc2c(c1)ccc1cccnc12` [1,10 Phenanthroline], the inhibition at 10 µM with M. tb H37Ra bacilli (setting [2]) is 81%. In test [1], the “Inhibition (%)” value came to 78%; the “Residual activity (%)” value worked out at 22.4 ± 0.47%; the “serine protease enzyme activity, effect in words” value (shortened to “serine protease enzyme activity”) was “inhibited”.
In the case of `O=c1oc(Cl)c(Cl)c2ccccc12` [3,4-Dichloroisocoumarin], the inhibition at 0.2 µM in the test with M. tb H37Ra bacilli (setting [2]) was found to be 85%. Moreover, the “serine protease enzyme activity” value in test [1] is recorded as “inhibited”. Further, in test [1] (10 µM), the “Inhibition (%)” value is 90% and the “Residual activity (%)” value is on record as 9.84 ± 0.07%.
Regarding `CC[C@@H](CO)NCCN[C@@H](CC)CO` [EMB, ethambutol], in the test on M. tb H37Ra bacilli, the “Effect on H37Ra culture (LJ slant/Sautons' medium)” value (“Effect … (LJ slant/Sautons' medium)” for short) is on record as “No Growth”; the “bacillary growth on LJ slant and in Sautons' broth, effect in words” value (from here on “bacillary growth”) is listed as “inhibition of bacillary growth”. Moreover, in test [1], the “% Inhibition of Serine protease” value was determined as 70% and the “serine protease enzyme activity” value is “inhibited”.
With `O=C(O)CN(CCN(CC(=O)O)CC(=O)O)CC(=O)O` [Ethylene diamine tetracetic acid (EDTA), Ethylene diamine tetracetic acid], in test [1], the “Inhibition (%)” value was determined as 65%; the “Residual activity (%)” value amounted to 35.3 ± 0.89%; the “serine protease enzyme activity” value was “inhibited”.
On to `NNC(=O)c1ccncc1` [INH, isoniazid], for which, in the test with M. tb H37Ra bacilli, the “Effect … (LJ slant/Sautons' medium)” value is on record as “No Growth”; the “bacillary growth” value is “inhibition of bacillary growth”. Also, in test [1], the “% Inhibition of Serine protease” value is reported as 85%; the “inhibition of serine protease activity” value was 85%; the “serine protease enzyme activity” value was “inhibited”.
As for `NC(=O)c1cnccn1` [PZA], the “% Inhibition of Serine protease” value in test [1] came out at 0%.
Take `Cl.NCCc1ccc(S(=O)(=O)F)cc1` [Pefabloc]: the “% Inhibition on culture” value with M. tb H37Ra bacilli (10 µM) is 88%. Also, in test [1], the “Inhibition (%)” value was 92%; the “Residual activity (%)” value came to 7.56 ± 0.07%; the “serine protease enzyme activity” value is given as “inhibited”.
`O=S(=O)(F)Cc1ccccc1` [Phenyl methyl sulphonyl fluoride (PMSF), Phenyl methyl sulphonyl fluoride]: the “% Inhibition on culture” value with M. tb H37Ra bacilli (20 µM) was 72%. For the same molecule, in test [1], the “Inhibition (%)” value was 80%; the “Residual activity (%)” value is recorded as 19.6 ± 0.2%; the “serine protease enzyme activity” value is reported as “inhibited”.
`[H]/N=C(/N)N[C@H]1[C@H](O)[C@@H](O)[C@H](O[C@@H]2O[C@@H](C)[C@](O)(C=O)[C@H]2O[C@@H]2O[C@@H](CO)[C@H](O)[C@@H](O)[C@@H]2NC)[C@@H](N/C(N)=N\[H])[C@@H]1O` [SM, streptomycin]: in the test on M. tb H37Ra bacilli, the “Effect … (LJ slant/Sautons' medium)” value is on record as “No Growth”; the “bacillary growth” value is given as “inhibition of bacillary growth”. Besides, in test [1], the “% Inhibition of Serine protease” value is 30% and the “serine protease enzyme activity” value is “inhibited”.
